Key:
[1] = Continued coupling in bleach, delta Dmin process B - process A; details: Table VI
Procedure: (§1) Dispersions of the coupler B3 were prepared with coupler solvents S1 and C2, both at a 1:1 B3:coupler solvent weight ratio. Dispersions of coupler M1 were prepared with C2 at 1:1 and with C2 plus aniline A1 at a 1:0.8:0.2 M1:C2:A1 weight ratio. These dispersions were prepared by dissolving the coupler in a mixture of coupler solvent, aniline A1 (optional) and cyclohexanone. The coupler:cyclohexanone weight ratio was 1:3. This mixture was then added to an aqueous solution of gelatin and ALKANOL XC surfactant. The two-phase mixture was then passed through a colloid mill to disperse the coupler-containing oil phase in the aqueous phase in the form of small droplets. The dispersion was then chilled, noodled and washed to remove the auxiliary cyclohexanone solvent. The resulting dispersions contained approximately 2% by weight of coupler and 6% by weight of gelatin.
(§2) The dispersions were then coated on a transparent support together with a silver bromoiodide emulsion in the format shown below. Coatings were then exposed through a stepwedge and subjected to variants of the KODAK FLEXICOLOR (C-41) process described below. One set of film samples was processed with an acetic acid stop bath between the development and bleach steps (process A). A second set of films was processed without a stop bath and with the bleach pH adjusted to 6.0 instead of the normal 5.25 (process B). This is intended to simulate behavior in a "seasoned" bleach whose pH increases due to carry-over of base from the developer solution. The difference between Dmin values (densities obtained in unexposed portions of the films) between process A and process B are due to continued coupling between coupler and developer carried over into the bleach. Both the lack of a stop bath and the high bleach pH in process B aggravate continued coupling. It is desirable to minimize Dmin density and Dmin variability due to continued coupling. Since conditions similar to process B are encountered in simplified trade processing, it is desirable to minimize continued coupling, as measured by the delta Dmin of process B - process A. These delta Dmin values are listed in Table VI along with λmax values and gamma values (obtained from plots of status M green density versus exposure).
(§3) 2.6 g/sq m Gelatin + 1.75 weight % BVSME* Hardener
(§4) Coupler Solvent + or - A1 @ equal weight to coupler
(§5) 1.08 g/sq m Silver Emulsion
(§6) //////Cellulose Acetate Butyrate Support//////
or Standard C-41 Bleach II
2B Bleach II Adjusted to pH = 6.0
(§7) Also included in this comparison was a 1:1 dispersion of M1 plus C2 to which was added the DIR coupler D1 (shown above) at a M1:D1 weight ratio of 1:0.045.

[2] = Absorption spectra of dye-containing processed films (λmax), C-41 process; format: physicochemical; details: coupler:S1 1:0.5
Procedure: (§8) Dispersions of the comparative couplers B1-B3 and B8 and of the couplers of this invention M1-M3 were prepared by dissolving the coupler in the coupler solvent S1 plus the auxiliary solvent 2-(2-butoxyethoxy)ethyl acetate and then dispersing this oil phase in an aqueous solution of gelatin and surfactant using an ultrasonic probe. The dispersions were chilled and washed for 6 hr at 4° C. to remove the auxiliary solvent. The dispersions contained approximately 8.8% coupler, 4.4% S1 and 6% gelatin by weight.
(§9) The dispersions were coated at 1.04 mmole/sq m together with a silver bromoiodide emulsion on a transparent acetate support in the format shown below. Hardened film strips were exposed through a 0-4 neutral density stepwedge and daylight V and WRATTEN 9 filters and subjected to a standard C-41 process at 37.8° C. The process consists of 2.5 min in color developer, 4 min in a ferric EDTA/PDTA bleach solution, 2 min wash, 4 min fix and 2 min final wash. Photographic gamma values were obtained from the slopes of plots of status M green density vs. exposure for processed samples. Absorption spectra of the dye-containing processed films were measured at a density near 1.0 on a spectrophotometer and the wavelengths of maximum absorption (λ max values) were recorded.
(§10) BVSM* Hardener 0.06 g/sq m
(§11) Coupler Solvent S1 1/2 coupler laydown
(§12) Dispersions of couplers B3, M1 and M5 with S1 (1:0.5) were prepared and coated as in Example 2. Film strips of these coatings were exposed, processed and analyzed as in Example 2. λmax values and gamma values associated with these film compositions are listed in Table III. This series further illustrates the use of electron-withdrawing substituents to obtain magenta dyes of the proper hue.
(§13) Dispersions of the comparative couplers B4, B5 and B8 and the couplers of this invention M6-M11 were prepared and coated as in Example 2. The coupler solvent S1 was again used at a 1:0.5 coupler:S1 weight ratio. Film strips of the hardened coatings were exposed, processed and analyzed as in Example 2. Couplers B4 and M6-M8 have a strongly electron-withdrawing alkoxycarbonyl substituent in the R2 position and couplers B5 and M9-M11 have a strongly electron-withdrawing alkylsulfonyl group at R2. […] The couplers of this invention, M6-M11, which have strong electron-withdrawing groups in each ring, yield dyes having the desired bathochromic hues, as shown by the λmax values. The gamma values obtained with the couplers of this invention are suitably high to be useful in photographic materials, as indicated by comparison to the gamma obtained from the commercial coupler B8.
(§14) Dispersions of the comparison couplers B6 and B7, and of the couplers of this invention M12-M17, were prepared using the coupler solvent Sl as in Example 2. These were coated as in Example 2, and hardened film strips were exposed, processed and analyzed as in Example 2. The results obtained are summarized in Table V. In this example all of the couplers have sulfamoyl or alkylsulfonyl substituents in the R1 position and the R2 substituent on the 3-anilino ring is varied. Comparative couplers B6 and B7 have chloro substituents at R2, whereas M12-M17 of this invention have strong electron withdrawing R2 groups. […] The gamma values of the couplers of this invention are similar to those of the comparative couplers.

[3] = λmax with coupler solvents and addenda (KODAK FLEXICOLOR C-41 variants); format: physicochemical; details: Table VI
Procedure: as §1, §2, §3, §4, §5, §6, §7

[4] = Photographic gamma with coupler solvents and addenda (KODAK FLEXICOLOR C-41 variants); details: Table VI, no DIR coupler
Procedure: as §1
as §2, with “Both the lack of a stop bath and the high bleach pH in process B aggravate continued coupling. It is desirable to minimize Dmin density and Dmin variability due to continued coupling.” left out, “exposure). […]” for “exposure).”

[5] = Photographic gamma (slope of status M green density vs. exposure), C-41 process; details: coupler:S1 1:0.5
Procedure: as §8, §9, §10, §11, §12, §13, §14

[6] = Formaldehyde exposure test (loss of dye density obtainable on processing); details: Table II, Example 3; 48 hr formaldehyde exposure, 60% RH; relative to water-glycerol only
Description: Prior examples of 3-anilino-1-phenyl-5-pyrazolone couplers that yield bathochromic dyes have been limited to four-equivalent couplers or to couplers with coupling-off groups other than arylthio or alkylthio groups. The four-equivalent couplers are not suitable for the practice of this invention because of their high propensity to react with formaldehyde or other hardeners. This can be illustrated by exposing coupler-containing films to formaldehyde and noting the changes in the dye density obtainable upon photographic processing. To obtain the data in Table II one set of film strips was suspended in a light-tight tank over a beaker containing 10 g of formaldehyde, and a solution of 14 g of water and 36 g of glycerol (60% RH) for 48 hr. A second set of strips was suspended for 48 hr over a water-glycerol solution without the beaker of formaldehyde. The strips were then exposed through a stepwedge, process (C-41) and the densities were measured. Values of the percent reduction in (Dmax-Dmin) for the samples exposed to formaldehyde relative to the samples exposed to water-glycerol only were determined.
Coatings of B8,B9 and M1 prepared as described in Example 2 were subjected to the formaldehyde test.

[7] = Unwanted blue light absorption of magenta dye in film (absorption spectra, FIGURE); format: physicochemical; details: relative to dye derived from comparative coupler B5
Procedure: as §9
Dispersions of the comparative couplers B4, B5 and B8 and the couplers of this invention M6-M11 were prepared and coated as in Example 2. The coupler solvent S1 was again used at a 1:0.5 coupler:S1 weight ratio. Film strips of the hardened coatings were exposed, processed and analyzed as in Example 2. Couplers B4 and M6-M8 have a strongly electron-withdrawing alkoxycarbonyl substituent in the R2 position and couplers B5 and M9-M11 have a strongly electron-withdrawing alkylsulfonyl group at R2. […]

[8] = C2(1.0), no aniline, no DIR coupler
[9] = S1(1.0), no aniline, no DIR coupler
[10] = C2(0.8), aniline A1(0.2), no DIR coupler
[11] = C2(1.0), no aniline, DIR coupler D1(0.045)

Row | SMILES | Delta Dmin Process B-A [1, 8] | Delta Dmin Process B-A [1, 9] | λmax(nm) (+-0.5) ([2]; Table I, Example 2) | λmax(nm) (+-0.5) ([2]; Table III, Example 4) | λmax(nm) [3, 8] | λmax(nm) [3, 9] | Gamma ([4]; C2(1.0), no aniline) | Gamma ([4]; S1(1.0), no aniline) | Gamma ([5]; Table I, Example 2) | Gamma ([5]; Table III, Example 4) | Delta Dmin Process B-A [1, 10] | Delta Dmin Process B-A [1, 11] | λmax(nm) [3, 10] | λmax(nm) [3, 11] | Gamma ([4]; C2(0.8), aniline A1(0.2)) | % Density Loss after Formaldehyde Exposure [6] | unwanted blue light absorption at 480 nm [7] | λmax(nm) (+-0.5) ([2]; Table IV, Example 5) | Gamma ([5]; Table IV, Example 5)
1 | CCCCCCCCCCCCNS(=O)(=O)c1ccc(NC2=NN(c3c(Cl)cc(Cl)cc3Cl)C(=O)C2Sc2cc(C(C)(C)CC(C)(C)C)ccc2OCCCC)c(Cl)c1 (centres unmarked) [Coupler B3, reference compound] | 0.071 | 0.191 | 546.0 nm | 546.5 nm | 544 nm | 548 nm | 1.78 | 2.10 | 4.7 | 4.5 | – | – | – | – | – | – | – | – | –
2 | CCCCCCCCCCCCNS(=O)(=O)c1ccc(NC2=NN(c3c(Cl)cc(S(=O)(=O)N4CCOCC4)cc3Cl)C(=O)C2Sc2cc(C(C)(C)CC(C)(C)C)ccc2OCCCC)c(Cl)c1 (centres unmarked) [Coupler M1] | 0.073 | – | 550.5 nm | – | 549 nm | – | – | – | – | 4.4 | 0.040 | 0.088 | 549 nm | 549 nm | 1.83 | 3% | – | – | –
3 | CCCCCCCCCCCCS(=O)(=O)c1ccc(NC2=NN(c3c(Cl)cc(C#N)cc3Cl)C(=O)C2Sc2cc(C(C)(C)CC(C)(C)C)ccc2OCCCC)c(Cl)c1 (centres unmarked) [Coupler M11] | – | – | – | – | – | – | – | – | – | – | – | – | – | – | – | – | less unwanted blue light absorption at 480 nm | 551.0 nm | 3.3
